From the NIST ThermoML archive (doi:10.1016/j.jct.2003.09.004)

Assays:
[1] = 298.15 K, 101.33 kPa, Liquid
[2] = excess molar enthalpy (molar enthalpy of mixing); xn = mol fraction of the nth substance listed; conditions: 298.15 K, 101.33 kPa, Liquid, Flow calorimetry

CC(C)CC(C)(C)C [2,2,4-trimethylpentane]
Conditions | mass density [kg/m3]
[1], Vibrating tube method | 688.03

CCC(C)(C)C [2,2-dimethylbutane]
Conditions | mass density [kg/m3]
[1] | 644.92

CCC(C)(C)C [2,2-dimethylbutane] + C=CCCCC
[2]
Conditions | excess molar enthalpy [kcal/mol]
x2 = 0.05 | 0.00286
x2 = 0.1 | 0.0056
x2 = 0.1576 | 0.00829
x2 = 0.2005 | 0.01
x2 = 0.2501 | 0.0116
x2 = 0.3002 | 0.0129
x2 = 0.3501 | 0.0138
x2 = 0.4002 | 0.0145
x2 = 0.4507 | 0.0149
x2 = 0.4999 | 0.0149
x2 = 0.5498 | 0.0147
x2 = 0.5996 | 0.0142
x2 = 0.6496 | 0.0134
x2 = 0.7 | 0.0124
x2 = 0.7501 | 0.0109
x2 = 0.7999 | 0.00973
x2 = 0.85 | 0.00798
x2 = 0.9 | 0.00524
x2 = 0.95 | 0.00272

CC(C)C(C)C [2,3-dimethylbutane]
Conditions | mass density [kg/m3]
[1] | 662.36

CC(C)C(C)C [2,3-dimethylbutane] + C=CCCCC
[2]
Conditions | excess molar enthalpy [kcal/mol]
x2 = 0.05 | 0.00357
x2 = 0.1001 | 0.00689
x2 = 0.1535 | 0.0101
x2 = 0.2 | 0.0124
x2 = 0.2508 | 0.0147
x2 = 0.2997 | 0.0162
x2 = 0.3499 | 0.0175
x2 = 0.3997 | 0.0186
x2 = 0.4498 | 0.019
x2 = 0.4998 | 0.0189
x2 = 0.5498 | 0.0186
x2 = 0.5996 | 0.0179
x2 = 0.6497 | 0.0169
x2 = 0.6997 | 0.0154
x2 = 0.7498 | 0.0136
x2 = 0.8001 | 0.0117
x2 = 0.8501 | 0.00924
x2 = 0.9 | 0.00639
x2 = 0.9499 | 0.00332

CCCC(C)C [2-methylpentane]
Conditions | mass density [kg/m3]
[1] | 650.22

CCCC(C)C [2-methylpentane] + C=CCCCC
[2]
Conditions | excess molar enthalpy [kcal/mol]
x2 = 0.0501 | 0.00256
x2 = 0.1 | 0.00496
x2 = 0.1504 | 0.00721
x2 = 0.2 | 0.00904
x2 = 0.2499 | 0.0106
x2 = 0.3001 | 0.0119
x2 = 0.3495 | 0.0128
x2 = 0.4001 | 0.0135
x2 = 0.4498 | 0.0139
x2 = 0.4997 | 0.014
x2 = 0.5501 | 0.0139
x2 = 0.6 | 0.0135
x2 = 0.6501 | 0.0128
x2 = 0.6993 | 0.0118
x2 = 0.7503 | 0.0104
x2 = 0.8001 | 0.00938
x2 = 0.8575 | 0.00688
x2 = 0.9 | 0.00513
x2 = 0.95 | 0.00269

CCC(C)CC [3-methylpentane]
Conditions | mass density [kg/m3]
[1] | 659.94

CCC(C)CC [3-methylpentane] + C=CCCCC
[2]
Conditions | excess molar enthalpy [kcal/mol]
x2 = 0.0501 | 0.00244
x2 = 0.1001 | 0.00478
x2 = 0.1533 | 0.00687
x2 = 0.2001 | 0.00842
x2 = 0.2501 | 0.00987
x2 = 0.3 | 0.0111
x2 = 0.3495 | 0.0119
x2 = 0.3995 | 0.0126
x2 = 0.45 | 0.013
x2 = 0.4995 | 0.0131
x2 = 0.5498 | 0.0129
x2 = 0.5997 | 0.0125
x2 = 0.6501 | 0.0119
x2 = 0.6994 | 0.0109
x2 = 0.7509 | 0.00972
x2 = 0.7999 | 0.00839
x2 = 0.85 | 0.00659
x2 = 0.9 | 0.00455
x2 = 0.95 | 0.00235

C=CCCCC [hex-1-ene]
Conditions | mass density [kg/m3]
[1] | 668.73

C=CCCCC [hex-1-ene] + CC(C)CC(C)(C)C
[2]
Conditions | excess molar enthalpy [kcal/mol]
x1 = 0.0501 | 0.0024
x1 = 0.1001 | 0.00448
x1 = 0.1501 | 0.00647
x1 = 0.2075 | 0.00837
x1 = 0.2499 | 0.00967
x1 = 0.2998 | 0.0109
x1 = 0.35 | 0.0119
x1 = 0.3998 | 0.0128
x1 = 0.4498 | 0.013
x1 = 0.4998 | 0.0134
x1 = 0.5497 | 0.0134
x1 = 0.5997 | 0.0131
x1 = 0.6499 | 0.0125
x1 = 0.6997 | 0.0117
x1 = 0.75 | 0.0105
x1 = 0.7994 | 0.00905
x1 = 0.8498 | 0.0074
x1 = 0.9 | 0.00524
x1 = 0.95 | 0.00273
